Measurements from PMC3285443 (European Journal of Pharmaceutical Sciences, 2010).
Values after ≈ are worked out from the molar mass of the structure shown. Read-outs that look alike come from different tables or passages of the source.

Key:
physchem = conditions: 25 °C, pH 7.4, aqueous buffer, thermodynamic from solid
in vivo [1] = conditions: female, Labrador retriever, dog, po, 0.3 mg/kg
in vivo [2] = conditions: female, Labrador retriever, dog, iv
[3] = cassette-dosing oral pharmacokinetic screening in dogs; conditions: dog; for AUC / half-life: female, Labrador retriever, plasma, po, 0.3 mg/kg; for C24/IC50 (ratio of blood concentration over the IC50 with recombinant human sEH after 24 hour): n=1
[4] = compartmental pharmacokinetics after i.v. administration in dogs; conditions: female, Labrador retriever, dog, plasma, iv
[5] = compartmental pharmacokinetics after oral gavage; conditions: female, Labrador retriever, dog, plasma, 0.3 mg/kg
[6] = experimental LogP determination; conditions: for logP at 24 h: 1-octanol / 0.1 M sodium phosphate buffer, pH 7.4
[7] = molecular target: T1, recombinant human soluble epoxide hydrolase (Homo sapiens, UniProt P34913); test: fluorescent assay with CMNPC substrate, recombinant human sEH; assay type: biochemical
T1 sequence (P34913 1-555): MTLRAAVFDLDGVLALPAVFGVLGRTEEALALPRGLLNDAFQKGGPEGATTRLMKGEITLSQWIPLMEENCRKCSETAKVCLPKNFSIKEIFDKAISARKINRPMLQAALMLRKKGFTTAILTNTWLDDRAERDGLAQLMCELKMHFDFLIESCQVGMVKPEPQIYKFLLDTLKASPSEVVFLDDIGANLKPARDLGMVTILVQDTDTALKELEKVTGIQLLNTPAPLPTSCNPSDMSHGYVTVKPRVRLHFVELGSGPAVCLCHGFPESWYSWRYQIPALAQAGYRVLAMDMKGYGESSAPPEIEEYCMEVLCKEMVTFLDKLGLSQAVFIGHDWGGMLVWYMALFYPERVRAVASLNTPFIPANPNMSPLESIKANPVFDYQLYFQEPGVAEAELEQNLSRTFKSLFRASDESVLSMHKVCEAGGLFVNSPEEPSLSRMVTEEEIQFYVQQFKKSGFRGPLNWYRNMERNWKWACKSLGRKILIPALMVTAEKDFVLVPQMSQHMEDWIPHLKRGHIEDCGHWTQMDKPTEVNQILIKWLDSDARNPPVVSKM

recombinant rat sEH = molecular target: T2, recombinant rat sEH (Rattus norvegicus, UniProt P80299); test: fluorescent assay with CMNPC substrate, recombinant rat sEH; assay type: biochemical
T2 sequence (P80299 1-554): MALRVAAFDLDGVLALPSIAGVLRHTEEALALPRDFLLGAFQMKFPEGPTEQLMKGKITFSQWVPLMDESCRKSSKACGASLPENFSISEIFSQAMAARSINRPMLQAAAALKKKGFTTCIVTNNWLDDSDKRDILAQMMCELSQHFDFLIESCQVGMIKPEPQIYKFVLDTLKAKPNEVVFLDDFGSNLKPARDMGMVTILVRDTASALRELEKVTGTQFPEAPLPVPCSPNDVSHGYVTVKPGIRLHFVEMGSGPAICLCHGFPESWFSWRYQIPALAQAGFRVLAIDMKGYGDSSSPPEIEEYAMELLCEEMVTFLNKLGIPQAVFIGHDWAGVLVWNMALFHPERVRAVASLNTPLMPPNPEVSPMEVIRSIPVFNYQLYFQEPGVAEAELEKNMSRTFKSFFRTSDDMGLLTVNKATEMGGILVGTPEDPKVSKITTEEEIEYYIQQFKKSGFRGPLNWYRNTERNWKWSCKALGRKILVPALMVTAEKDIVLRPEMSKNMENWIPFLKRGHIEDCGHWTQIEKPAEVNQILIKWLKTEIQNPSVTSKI

human recombinant sEH = molecular target: T3, human recombinant sEH (Homo sapiens, UniProt P34913); test: radioactive t-DPPO assay, purified recombinant human sEH; assay type: biochemical
T3 sequence (P34913 1-555): T1 sequence (P34913 1-555)

recombinant murine sEH = molecular target: T4, recombinant murine sEH (Mus musculus, UniProt P34914); test: fluorescent assay with CMNPC substrate, recombinant mouse sEH; assay type: biochemical
T4 sequence (P34914 1-554): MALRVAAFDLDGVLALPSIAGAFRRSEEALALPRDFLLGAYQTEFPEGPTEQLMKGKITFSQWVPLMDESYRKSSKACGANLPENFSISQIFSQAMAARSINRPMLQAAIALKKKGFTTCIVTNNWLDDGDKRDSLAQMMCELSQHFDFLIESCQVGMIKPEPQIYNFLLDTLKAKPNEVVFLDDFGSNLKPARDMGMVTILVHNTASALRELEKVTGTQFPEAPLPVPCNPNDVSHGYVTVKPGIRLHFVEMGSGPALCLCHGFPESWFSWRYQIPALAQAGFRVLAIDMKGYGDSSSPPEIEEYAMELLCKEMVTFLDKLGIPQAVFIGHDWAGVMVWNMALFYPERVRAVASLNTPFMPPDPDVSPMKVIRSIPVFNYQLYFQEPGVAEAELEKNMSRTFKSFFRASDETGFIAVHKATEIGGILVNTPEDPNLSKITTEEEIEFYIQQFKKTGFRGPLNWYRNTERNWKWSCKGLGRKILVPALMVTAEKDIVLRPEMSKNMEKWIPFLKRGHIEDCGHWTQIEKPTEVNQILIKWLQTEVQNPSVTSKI

[8] = water solubility determination; conditions: 0.1 M sodium phosphate buffer (pH 7.4), 25°C, 24 hours
[9] = molecular target: human sEH (human liver cytosol) (Homo sapiens, UniProt P34913); test: LC/MS assay with 14,15-EET substrate, human liver cytosol; assay type: biochemical
[10] = molecular target: T5, purified human recombinant sEH (Homo sapiens, UniProt P34913); assay type: biochemical
T5 sequence (P34913 1-555): T1 sequence (P34913 1-555)

SMILES	AUC [3]	half-life [3]	logP at 24 h [6]	IC50 (recombinant rat sEH)	C24/IC50 (ratio of blood concentration over the IC50 with recombinant human sEH after 24 hour) ([3]; oral 0.3 mg/kg cassette dosing)	IC50 (human recombinant sEH)	IC50 (recombinant murine sEH)	further results
CC(=O)N1CCC(NC(=O)NC23CC4CC(CC(C4)C2)C3)CC1 [compound 14, N-(1-acetylpiperidin-4-yl)-N’-(adamant-1-yl) urea]								solubility at 24 h (physchem): 490 µg/mL (≈ 1530 µM); Cmax (in vivo [1]): 80 ± 30 nM; Tmax (in vivo [1]): 1 ± 0.7 h; half-life (in vivo [1]): 1.7 ± 0.4 h; clearance (in vivo [2]): 40 mL/min/kg; half-life (in vivo [2]): 0.6 ± 0.1 h
CCOCCOCCOCCCCCNC(=O)NC12CC3CC(CC(C3)C1)C2 [compound 3, 1-adamantan-1-yl-3-{5-[2-(2-ethoxyethoxy)ethoxy]pentyl}urea]	0.04 µM·h	1 h	2.6					clearance [4]: 96.7 mL/min/kg; half-life [4]: 9.6 ± 1.8 min; AUC [5]: 0.03 µM·h; Cmax [5]: 20 ± 10 nM; Tmax [5]: 0.2 ± 0.1 h; half-life [5]: 1.7 ± 1 h
CC(=O)N1CCC(NC(=O)NC2CCCCCC2)CC1 [compound 31, 1-cycloheptyl-3-(1-acetylpiperidin-4-yl) urea]	3.67 µM·h	5.2 h		7 nM	1.0	300 nM	12 nM	IC50 ([7]; IC50, CMNPC, Human): 28 nM
COC(=O)c1ccc(NC(=O)NC23CC4CC(CC(C4)C2)C3)cc1O [compound 62, 4-(3-adamantane-1-yl-ureido)-2-hydroxyl-benzoic acid methyl ester]	0.21 µM·h			8 nM	0.7	6 nM	10 nM	IC50 [7]: 3 nM
CC(=O)N1CCC(NC(=O)Nc2ccc(OC(F)(F)F)cc2)CC1 [compound 24]								T1/2 (terminal half-life) ([3]; oral 0.3 mg/kg cassette dosing, n=1, non-compartmental): >24 h; Water solubility [8]: 51 µg/mL; LogP (pH 7.4) ([6]; octanol / 0.1 M sodium phosphate buffer at pH 7.4): 2.3
O=C(O)CCCCCCCCCCCNC(=O)NC12CC3CC(CC(C3)C1)C2 [compound 1, 12-(3-adamantane-1-yl-ureido)-dodecanoic acid]			3					
O=C(Nc1ccc(Cl)cc1)Nc1ccc(Cl)c(Cl)c1 [compound 74, triclocarban, reference compound]	0.03 µM·h	0.5 h			<0.1			
CS(=O)(=O)N1CCC(NC(=O)Nc2ccc(OC(F)(F)F)cc2)CC1 [compound 27, 1-(1-methylsulfonyl-piperidin-4-yl)-3-(4-trifluoromethoxy-phenyl)-urea]	28.3 µM·h	> 24 h	1.9	9 nM		26 nM	5 nM	IC50 ([7]; IC50, CMNPC, Human, purified recombinant enzyme at […]): 3 nM; IC50 [9]: 26 nM; IC50 ([10]; IC50 on human sEH in buffer, buffer): 150 nM; IC50 ([10]; IC50 on human sEH incubated in sEH depleted canine liver cytosol, sEH depleted canine liver cytosol supplemented with purified human recombinant sEH): 120 nM
